Tests used:
[1] = Franz cell percutaneous absorption analysis; type: in vitro ADME, human; details: from lotion formulation with 1.0% 4-ethoxybenzaldehyde; 24 hour period
Experimental: This lotion was then tested by Franz cell percutaneous absorption analysis to determine how much 4-EB could penetrate human skin over a 24 hour period. The lotion formulation above provided a flux rate of 4-EB through human skin of 30-50 micrograms/hour.

[2] = tested on: TPA-induced PGE2 expression in keratinocytes; test: TPA-induced PGE-2 in human skin keratinocytes, ELISA of culture medium; type: cell-based; design: percent inhibition of TPA-induced PGE-2: unit of the concentration uncertain; details: TPA 32 nM
Experimental: Similar in vitro studies as those described in Example 1 were run using human skin keratinocytes. The experimental set up was the same as described for Example 2, but replacing IL-1 with tetradecanoyl phorbol acetate (TPA) at a concentration of 32 nM as the agonist.
Similar in vitro studies as those described in Example 4 were run using human skin keratinocytes. The experimental set up was the same as described for Example 5 but replacing IL-1 with tetradecanoyl phorbol acetate (TPA) at a concentration of 32 nM as the agonist. The compounds tested were 2-ethoxybenzaldehyde (2-EB), and 3-ethoxybenzaldehyde (3-EB) and 4-ethoxybenzaldehyde (4-EB) in concentrations of either 10, 50, or 100 μM.

UV-induced erythema = test: UVB-induced erythema on inner forearm of a volunteer, topical lotion; type: in vivo, human; details: next day, 14 hours post-irradiation
Experimental: This lotion was then tested to determine if it could prevent an inflammatory response when applied topically to human skin. For this study a lab volunteer was irradiated on a quarter sized spot on the inner forearm with 60-80 mJ of UVB light (a sunlamp). This dose was sufficient to cause a highly visible red erythema response. Immediately following irradiation on both arms, one arm was treated with the above 4-EB lotion while the other arm was treated with the same lotion formulation but with no 4-EB.

IL-1 induction of PGE-2 = IL-1 induction of PGE-2 in human skin fibroblasts, ELISA of culture medium; type: cell-based
Experimental: For this experiment, human skin fibroblasts were seeded into 12 well culture dishes at a density of 80,000 cells/wells in tissue culture medium and left overnight to attach to the dish. The next day, medium was removed and replaced with fresh medium containing either 1% ethanol as a diluent control, IL-1 at a concentration of 500 picograms/ml, or IL-1 plus 4-EB at either 250 μM or 500 μM. Cells were incubated for an additional 24 hours and at this time, the medium was removed and assayed by ELISA for the presence of PGE-2 in the culture medium. […] The percent inhibitions are as follows: 4-EB, 100%, 6% and 10% at 50 μM, 10 μM and 1 μM.
Subsequent studies were carried out to determine the dose-response of human skin fibroblasts to 4-EB. […] The results of the study are provided graphically in FIG. 3A.
For this experiment, human skin fibroblasts were seeded into 12 well culture dishes at a density of 80,000 cells/wells in tissue culture medium and left overnight to attach to the dish. The next day, medium was removed and replaced with fresh medium containing either 1% ethanol as a diluent control, IL-1 at a concentration of 500 picograms/ml, or IL-1 plus one of the compounds under investigation at a concentration of 1, 10, 50 or 100 μM. Cells were incubated for an additional 24 hours and at this time, the medium was removed and assayed by ELISA for the presence of PGE-2 in the culture medium.

Compound | flux rate of 4-EB through human skin [1] | percent inhibition of TPA-induced PGE-2 ([2]; 50 μM) | percent inhibition of TPA-induced PGE-2 ([2]; 1001 (unit uncertain)) | inhibition at 50 µM ([2]; Homo sapiens, Keratinocyte, 50 μM, read-out: percent inhibition of TPA-induced PGE-2) | inhibition at 100 µM ([2]; Homo sapiens, Keratinocyte, 100 μM, read-out: percent inhibition of TPA-induced PGE-2) | redness of the treated spot (UV-induced erythema) | percent inhibition of IL-1 induced PGE-2 (IL-1 induction of PGE-2; 50 μM, IL-1 500 picograms/ml, 24 hours) | block of the IL-1 induction of PGE-2 (in words) (IL-1 induction of PGE-2; 100 μM, dose-response study) | inhibition of the IL-1 induction of PGE-2 (IL-1 induction of PGE-2; 250 μM, IL-1 500 picograms/ml, 24 hours) | inhibition of the IL-1 induction of PGE-2 (IL-1 induction of PGE-2; 500 μM, IL-1 500 picograms/ml, 24 hours) | inhibition of the IL-1 induced production of PGE-2 (in words) (IL-1 induction of PGE-2; 50 μM)
CCOc1ccc(C=O)cc1 [4-EB, 4-ethoxybenzaldehyde] | 30-50 micrograms/hour | 79.9% | 94.9% | 79.9% | 94.9% | no redness | 82% | completely blocked | complete inhibition | complete inhibition | –
COc1ccc(C=O)cc1 [4-MB, 4-methoxybenzaldehyde] | – | – | – | – | – | – | – | – | – | – | did not appear to inhibit
